Source: US10766940B2, “Brain penetrant amylin receptor based peptides for Alzheimer's disease” (The Governors of the University of Alberta, priority 2016, dated 2020)
Residues, ends and D or L forms follow the SMILES beside them.

Assays:
[1] = test system: TgCRND8 AD mouse model; assay: Morris Water Maze, chronic icv infusion of AC253; format: in vivo
Protocol: Age-matched, wild-type littermate (C57BL/6 background) male or female mice were used. […] Heterozygous CTR (het CTR) mice (C57BL/6J background) with a 50% deletion of CTR were obtained from Drs. R. A. Davey and J. D. Zajac (Department of Medicine, Austin Health, University of Melbourne, Heidelberg, Victoria, Australia). Mice were housed individually under standard laboratory conditions (12/12-h light/dark cycle, lights on at 0600 h) with a room temperature of 21° C. Water and food were available ad libitum unless otherwise indicated. All tests were performed during the light phase between 0900 and 1600 h in accordance with institutional guidelines. The mice were 3 months old at the onset of testing.
(§1) A microcannula was stereotaxically inserted into the right cerebral ventricle (0.12 right lateral and 0.06 posterior to bregma, 3 mm deep) of isofluorane-anesthetized mice, and connected to an osmotic pump (Alzet; model 2004) implanted subcutaneously on the back of the mouse. The pump infused a solution of either aCSF or AC253 in aCSF into the ventricle at a rate of […] to yield an estimated concentration of 1 μM AC253 in the mouse CSF at equilibrium based upon the known CSF dynamics in the mouse brain (Di Pardo et al., 2012). The pump reservoir was replaced every 28 days for a total of 5-6 months. Animals were monitored on a daily basis for signs of treatment-related toxicity, such as poor grooming, lethargy, loss of bodyweight, and abnormal behavior. […]
The MWM apparatus consisted of a 2 m circular blue plastic pool filled with water (24-25° C.), which was rendered opaque by the addition of non-toxic white paint. […] The behavior of a mouse was recorded by a video camera connected to a video tracking system (HVS Image 2100, HVS Image, Buckingham, UK).
The pool was surrounded by a white curtain, and a mouse was released facing the wall at points (N, E, S, W) which were chosen semi-randomly. […] Memory was evaluated in probe trial, administered on day 8 as the first trial of the day. […] Memory for the platform location was expressed as the percent of time spent in TQ.

[2] = test system: Aβ plaques in TgCRND8 mice brains; assay: Immunofluorescent-histological staining of Aβ plaques (6E10); format: in vivo, mouse; conditions: Tg AC253 vs Tg CSF
Protocol: as §1
For immunostaining, […] thick brain sections were cut using a Cryostat (Leica CM1850), fixed with 4% paraformaldehyde in PBS, permeabilized using 0.3% Triton X-100 and stained with Aβ (6E10), Iba1, and CTR antibody, followed by fluorescent secondary antibody (goat anti mouse Alexa Fluor-546 and donkey anti rabbit Alexa Fluor-488) and mounted in DAPI mounting media. Fluorescent microscopy images were acquired with an Axioplan-2 fluorescence microscope with AxioVision software (Carl Zeiss Ltd., Toronto, ON, Canada). Amyloid plaque size and area were analyzed with Image J.

[3] = Lipophilicity, shake flask 1-octanol/water partition; format: physicochemical
Protocol: Peptides hydrophobicity was determined using the shake flask method and 1-octanol/water partition coefficient (log Po/w) was determined. […] Peptide concentration (area) in both phases (1-octanol and water) were analyzed by RP-HPLC. The final log Po/w value was calculated by dividing the concentration (C) of the peptide in the two phases as presented by the area under the peak (partition coefficients=C1-octanol/Cwater).

[4] = test system: heterozygous CTR knockdown mice (50% depletion of amylin receptors); assay: R5 brain uptake in heterozygous CTR knockdown mice; format: in vivo, mouse; conditions: Wt vs CTR knockdown mice, ip, 2 hr
Protocol: Mice were injected with a single dose and then sacrificed, and the brains were extracted after 2 hours from injection. Fluorescence in brains was quantified as previously described.

Compound | latencies to locate the hidden platform (MWM) ([1]; TgCRND8 mice at 8 months of age, after 5 months of icv treatment, vs littermates receiving CSF) | memory in probe trials for location of the target quadrant ([1]; TgCRND8 mice, 8 months of age) | memory deficits in MWM, Wt controls ([1]; wild-type littermate controls, icv AC253 or CSF, 8 months of age) | number of Aβ plaques, total area of Aβ-positive profiles [2] | Partition coefficient [3] | logP [3] | brain uptake in relation to amylin receptor expression [4]
CC(C)C[C@H](NC(=O)[C@H](CCCNC(=N)N)NC(=O)CNC(=O)[C@@H](N)CC(C)C)C(=O)N[C@@H](CO)C(=O)N[C@@H](CCC(N)=O)C(=O)N[C@@H](CCC(=O)O)C(=O)N[C@@H](CC(C)C)C(=O)N[C@@H](Cc1c[nH]cn1)C(=O)N[C@@H](CCCNC(=N)N)C(=O)N[C@@H](CC(C)C)C(=O)N[C@@H](CCC(N)=O)C(=O)N[C@H](C(=O)N[C@@H](Cc1ccc(O)cc1)C(=O)N1CCC[C@H]1C(=O)N[C@@H](CCCNC(=N)N)C(=O)N[C@H](C(=O)N[C@@H](CC(N)=O)C(=O)N[C@H](C(=O)NCC(=O)N[C@@H](CO)C(=O)N[C@@H](CC(N)=O)C(=O)N[C@H](C(=O)N[C@@H](Cc1ccc(O)cc1)C(N)=O)[C@@H](C)O)[C@@H](C)O)[C@@H](C)O)[C@@H](C)O [AC253] | marked improvement in latencies to locate the hidden platform | enhanced and persistent memory in probe trials | no memory deficits | did not reveal significant difference | 1.05 | -1.2 | 
CC(C)C[C@H](NC(=O)[C@H](CCC(=O)O)NC(=O)[C@H](CCC(N)=O)NC(=O)[C@@H](N)CO)C(=O)N[C@@H](Cc1c[nH]cn1)C(=O)N[C@@H](CCCNC(=N)N)C(=O)N[C@@H](CC(C)C)C(=O)N[C@@H](CCC(N)=O)C(=O)N[C@H](C(=O)N[C@@H](Cc1ccc(O)cc1)C(=O)N1CCC[C@H]1C(=O)N[C@@H](CCCNC(=N)N)C(N)=O)[C@@H](C)O [R5] (H-SQELHRLQTYPR-NH2; N-terminus assumed) |  |  |  |  |  |  | proportional to the degree of amylin receptor expression
